Laboratory results reported in ChEMBL document CHEMBL5370547, “NSD3: Advances in cancer therapeutic potential and inhibitors research” (Eur J Med Chem, 2023).
One block for each molecule: values may come before it. Starred links: 1 amine or outer side, 2 acyl side, 3 side chain; linkers in the order of their positions; H or OH if unused. Non-standard residues stand in square brackets, D forms with d. Residues, ends and D or L forms follow the SMILES beside them. X1 = CCC[C@H](C)[C@H](N[*:1])C(=O)[*:2]

Columns and labels:
[1] = Antiproliferative activity against human RN 22 cells assessed as cell growth inhibition measured after 6 days by RealTime-Glow MT cell viability assay; format: functional, cell-based; details: RN 22, 144 h
[2] = system: MOLM-13; assay: Antiproliferative activity against human MOLM-13 cells assessed as cell growth inhibition measured after 6 days in presence of JQ1 by RealTime-Glow MT cell viability assay; format: functional, cell-based; details: MOLM-13, 144 h
[3] = Inhibition of C-terminal NanoLuc-tagged human NSD3 PWWP1 domain/ C-terminal HaloTag fused histone H3 (unknown origin) interaction transfected in human U2OS cells; format: cell-based
[4] = system: MOLM-13; assay: Antiproliferative activity against human MOLM-13 cells assessed as cell growth inhibition measured after 6 days by RealTime-Glow MT cell viability assay; format: functional, cell-based; details: MOLM-13, 144 h
[5] = molecular target: T1, Histone-lysine N-methyltransferase NSD3 (Homo sapiens, UniProt Q9BZ95); assay: Inhibition of N-terminal GST-fused recombinant human NSD3 (1021 to 1322 residues) expressed in Escherichia coli using SAM as substrate preincubated for 20 mins followed by substrate addition measured after 1 hrs by hotspot assay
T1 sequence (Q9BZ95 whole entry): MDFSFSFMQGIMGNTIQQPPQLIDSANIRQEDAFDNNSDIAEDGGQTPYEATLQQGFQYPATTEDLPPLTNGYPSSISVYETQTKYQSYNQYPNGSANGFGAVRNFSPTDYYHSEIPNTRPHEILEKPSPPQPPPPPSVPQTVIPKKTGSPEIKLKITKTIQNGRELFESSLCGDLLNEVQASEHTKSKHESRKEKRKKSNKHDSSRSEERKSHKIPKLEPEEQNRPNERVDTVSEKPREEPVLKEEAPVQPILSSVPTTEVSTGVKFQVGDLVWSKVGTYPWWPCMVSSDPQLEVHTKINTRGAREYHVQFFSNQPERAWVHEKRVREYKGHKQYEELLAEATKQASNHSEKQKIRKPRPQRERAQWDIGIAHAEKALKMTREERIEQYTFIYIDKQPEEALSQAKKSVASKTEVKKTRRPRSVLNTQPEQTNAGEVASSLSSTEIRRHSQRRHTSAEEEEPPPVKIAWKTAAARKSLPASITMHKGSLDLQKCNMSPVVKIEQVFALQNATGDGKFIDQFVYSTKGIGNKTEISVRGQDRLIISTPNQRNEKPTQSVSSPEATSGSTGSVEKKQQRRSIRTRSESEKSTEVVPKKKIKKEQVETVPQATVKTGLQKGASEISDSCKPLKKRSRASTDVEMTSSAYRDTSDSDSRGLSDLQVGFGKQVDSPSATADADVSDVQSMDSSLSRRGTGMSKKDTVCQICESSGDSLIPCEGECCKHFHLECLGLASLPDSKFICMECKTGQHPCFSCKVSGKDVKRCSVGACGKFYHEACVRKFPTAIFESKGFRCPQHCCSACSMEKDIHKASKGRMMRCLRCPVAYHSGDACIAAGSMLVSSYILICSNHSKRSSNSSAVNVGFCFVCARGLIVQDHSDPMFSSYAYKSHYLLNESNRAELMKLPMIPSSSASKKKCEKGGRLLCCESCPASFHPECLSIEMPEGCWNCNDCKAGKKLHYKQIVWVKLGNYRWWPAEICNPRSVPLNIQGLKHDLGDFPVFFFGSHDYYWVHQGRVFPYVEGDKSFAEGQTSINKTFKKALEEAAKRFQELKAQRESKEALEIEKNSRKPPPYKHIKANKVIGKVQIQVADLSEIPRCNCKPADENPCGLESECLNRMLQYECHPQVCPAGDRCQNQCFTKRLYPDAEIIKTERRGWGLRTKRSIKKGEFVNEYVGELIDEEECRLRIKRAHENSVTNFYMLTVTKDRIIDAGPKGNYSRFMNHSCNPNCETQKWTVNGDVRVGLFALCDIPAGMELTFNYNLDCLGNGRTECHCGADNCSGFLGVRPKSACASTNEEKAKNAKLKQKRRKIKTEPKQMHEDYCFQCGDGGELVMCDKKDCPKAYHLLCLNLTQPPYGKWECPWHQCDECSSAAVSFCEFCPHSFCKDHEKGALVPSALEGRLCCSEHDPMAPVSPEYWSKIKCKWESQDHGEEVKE

[6] = molecular target: T2, Histone-lysine N-methyltransferase, H3 lysine-36 specific (Homo sapiens, UniProt Q96L73); assay: Inhibition of N-terminal polyhistidine-tagged recombinant human NSD1 (1538 to 2696 residues) expressed in baculovirus infected insect cell using SAM as substrate preincubated for 20 mins followed by substrate addition measured after 1 hrs by hotspot assay
T2 sequence (Q96L73 whole entry, the tested form may be a part): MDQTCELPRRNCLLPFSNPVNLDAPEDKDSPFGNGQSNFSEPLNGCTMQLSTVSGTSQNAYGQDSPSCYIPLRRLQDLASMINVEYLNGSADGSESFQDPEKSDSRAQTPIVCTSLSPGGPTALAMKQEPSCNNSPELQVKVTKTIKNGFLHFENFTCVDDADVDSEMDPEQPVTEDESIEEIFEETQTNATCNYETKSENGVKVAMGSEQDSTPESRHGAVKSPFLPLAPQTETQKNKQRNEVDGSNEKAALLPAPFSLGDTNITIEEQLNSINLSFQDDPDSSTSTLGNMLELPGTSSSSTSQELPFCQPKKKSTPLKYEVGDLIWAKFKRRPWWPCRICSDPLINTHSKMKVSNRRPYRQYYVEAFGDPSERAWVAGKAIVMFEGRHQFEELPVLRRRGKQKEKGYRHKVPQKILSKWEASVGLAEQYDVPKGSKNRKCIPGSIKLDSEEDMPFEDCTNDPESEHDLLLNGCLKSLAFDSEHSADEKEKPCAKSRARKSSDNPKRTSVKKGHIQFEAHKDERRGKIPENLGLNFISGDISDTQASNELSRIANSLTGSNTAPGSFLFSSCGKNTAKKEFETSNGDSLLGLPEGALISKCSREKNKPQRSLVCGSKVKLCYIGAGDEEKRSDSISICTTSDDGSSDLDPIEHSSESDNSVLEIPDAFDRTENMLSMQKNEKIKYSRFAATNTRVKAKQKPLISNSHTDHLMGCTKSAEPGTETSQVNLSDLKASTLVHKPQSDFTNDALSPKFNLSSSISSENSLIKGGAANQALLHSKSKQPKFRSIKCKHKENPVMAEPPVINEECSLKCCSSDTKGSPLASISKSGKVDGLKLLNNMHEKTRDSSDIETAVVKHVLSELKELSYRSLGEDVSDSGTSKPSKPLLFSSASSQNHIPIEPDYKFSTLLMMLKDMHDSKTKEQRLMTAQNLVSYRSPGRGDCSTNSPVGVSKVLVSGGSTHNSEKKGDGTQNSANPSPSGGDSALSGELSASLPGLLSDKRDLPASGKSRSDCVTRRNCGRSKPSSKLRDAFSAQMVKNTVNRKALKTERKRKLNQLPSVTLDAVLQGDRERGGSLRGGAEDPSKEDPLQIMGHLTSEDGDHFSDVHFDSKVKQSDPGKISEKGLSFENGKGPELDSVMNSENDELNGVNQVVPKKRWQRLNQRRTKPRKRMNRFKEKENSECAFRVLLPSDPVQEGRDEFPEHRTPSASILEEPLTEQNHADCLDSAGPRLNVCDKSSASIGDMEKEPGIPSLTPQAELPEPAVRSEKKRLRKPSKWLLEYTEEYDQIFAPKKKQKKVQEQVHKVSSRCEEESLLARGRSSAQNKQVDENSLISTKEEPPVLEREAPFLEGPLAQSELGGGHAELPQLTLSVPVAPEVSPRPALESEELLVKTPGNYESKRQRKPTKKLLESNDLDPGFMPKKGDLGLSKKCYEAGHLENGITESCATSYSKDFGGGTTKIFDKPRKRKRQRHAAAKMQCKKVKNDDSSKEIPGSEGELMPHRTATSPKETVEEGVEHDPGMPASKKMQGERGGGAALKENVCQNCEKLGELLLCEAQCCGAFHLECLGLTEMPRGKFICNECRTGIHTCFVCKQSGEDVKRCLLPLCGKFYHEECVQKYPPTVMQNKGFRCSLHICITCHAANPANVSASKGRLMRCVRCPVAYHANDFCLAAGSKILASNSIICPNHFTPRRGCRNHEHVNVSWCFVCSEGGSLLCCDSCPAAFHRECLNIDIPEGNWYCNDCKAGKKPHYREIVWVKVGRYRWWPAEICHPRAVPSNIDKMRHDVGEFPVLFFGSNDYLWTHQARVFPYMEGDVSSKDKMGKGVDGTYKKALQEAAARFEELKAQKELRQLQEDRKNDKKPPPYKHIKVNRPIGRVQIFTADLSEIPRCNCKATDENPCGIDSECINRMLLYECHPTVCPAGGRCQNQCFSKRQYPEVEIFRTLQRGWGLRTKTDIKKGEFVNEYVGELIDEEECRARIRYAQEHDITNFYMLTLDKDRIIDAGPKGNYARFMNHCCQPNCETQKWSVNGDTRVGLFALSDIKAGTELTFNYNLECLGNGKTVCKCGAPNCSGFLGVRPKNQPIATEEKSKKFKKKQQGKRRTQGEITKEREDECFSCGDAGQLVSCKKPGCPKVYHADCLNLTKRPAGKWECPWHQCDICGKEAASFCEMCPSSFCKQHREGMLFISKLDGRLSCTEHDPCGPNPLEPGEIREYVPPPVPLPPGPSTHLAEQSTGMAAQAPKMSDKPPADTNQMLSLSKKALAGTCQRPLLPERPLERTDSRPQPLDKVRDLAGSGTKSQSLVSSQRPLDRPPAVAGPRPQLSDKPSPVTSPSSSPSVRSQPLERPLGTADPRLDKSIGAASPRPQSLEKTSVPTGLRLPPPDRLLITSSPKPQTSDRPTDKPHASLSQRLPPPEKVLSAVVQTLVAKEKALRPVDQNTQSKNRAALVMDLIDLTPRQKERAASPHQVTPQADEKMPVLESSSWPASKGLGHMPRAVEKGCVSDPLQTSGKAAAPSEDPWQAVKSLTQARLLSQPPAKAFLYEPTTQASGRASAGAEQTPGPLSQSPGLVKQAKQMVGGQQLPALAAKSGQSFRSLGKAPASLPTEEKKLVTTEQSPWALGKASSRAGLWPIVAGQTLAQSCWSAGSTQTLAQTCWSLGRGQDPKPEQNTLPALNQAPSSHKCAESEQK

[7] = molecular target: T2, Histone-lysine N-methyltransferase, H3 lysine-36 specific; assay: Inhibition of human NSD1 overexpressed in Escherichia coli BL21(DE3) using nucleosome as substrate by SPA analysis
[8] = molecular target: T1, Histone-lysine N-methyltransferase NSD3; assay: Inhibition of human NSD3 overexpressed in Escherichia coli BL21(DE3) using nucleosome as substrate by SPA analysis
[9] = molecular target: T3, Histone-lysine N-methyltransferase NSD2 (Homo sapiens, UniProt O96028); assay: Inhibition of human NSD2 overexpressed in Escherichia coli BL21(DE3) using nucleosome as substrate by SPA analysis
T3 sequence (O96028 whole entry): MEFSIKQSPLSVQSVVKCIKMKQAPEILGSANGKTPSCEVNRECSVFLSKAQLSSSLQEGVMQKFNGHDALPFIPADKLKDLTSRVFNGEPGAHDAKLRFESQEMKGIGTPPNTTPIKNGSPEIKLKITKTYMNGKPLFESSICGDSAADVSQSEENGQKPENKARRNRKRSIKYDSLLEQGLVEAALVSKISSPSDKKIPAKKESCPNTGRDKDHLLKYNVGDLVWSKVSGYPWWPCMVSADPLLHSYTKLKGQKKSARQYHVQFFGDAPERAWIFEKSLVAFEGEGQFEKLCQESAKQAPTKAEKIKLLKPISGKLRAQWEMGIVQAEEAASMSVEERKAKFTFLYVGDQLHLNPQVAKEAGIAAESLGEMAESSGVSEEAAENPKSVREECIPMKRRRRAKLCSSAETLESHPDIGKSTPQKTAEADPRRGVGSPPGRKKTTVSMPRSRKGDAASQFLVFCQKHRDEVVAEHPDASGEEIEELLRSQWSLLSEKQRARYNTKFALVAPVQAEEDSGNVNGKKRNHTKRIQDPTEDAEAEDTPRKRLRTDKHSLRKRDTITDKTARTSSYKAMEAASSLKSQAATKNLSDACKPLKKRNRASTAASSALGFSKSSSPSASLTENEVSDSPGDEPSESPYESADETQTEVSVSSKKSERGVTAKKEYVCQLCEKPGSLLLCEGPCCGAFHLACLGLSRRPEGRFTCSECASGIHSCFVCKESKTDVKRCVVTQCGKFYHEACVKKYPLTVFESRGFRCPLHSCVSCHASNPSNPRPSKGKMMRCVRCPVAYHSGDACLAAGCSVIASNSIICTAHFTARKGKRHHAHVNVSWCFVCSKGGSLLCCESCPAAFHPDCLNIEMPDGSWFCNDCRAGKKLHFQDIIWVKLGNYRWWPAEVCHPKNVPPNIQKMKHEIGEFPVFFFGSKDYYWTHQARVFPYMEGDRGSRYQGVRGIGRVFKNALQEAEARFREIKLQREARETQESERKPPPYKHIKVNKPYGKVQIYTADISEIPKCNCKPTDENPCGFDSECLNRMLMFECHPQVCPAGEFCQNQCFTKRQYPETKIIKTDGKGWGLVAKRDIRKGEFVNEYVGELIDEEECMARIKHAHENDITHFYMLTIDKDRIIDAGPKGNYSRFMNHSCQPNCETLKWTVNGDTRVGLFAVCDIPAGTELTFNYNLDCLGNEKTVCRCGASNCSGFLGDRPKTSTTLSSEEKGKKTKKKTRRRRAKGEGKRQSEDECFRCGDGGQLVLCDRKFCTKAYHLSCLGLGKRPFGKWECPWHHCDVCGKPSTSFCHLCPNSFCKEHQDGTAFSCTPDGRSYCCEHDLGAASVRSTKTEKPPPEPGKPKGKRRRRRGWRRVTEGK

[10] = system: MM1.S; assay: Antiproliferative activity against human MM1.S cells assessed as cell growth inhibition measured after 8 days; format: functional, cell-based; details: 192 h
[11] = molecular target: T1, Histone-lysine N-methyltransferase NSD3; assay: Binding affinity to human NSD3 […] domain (247 to 402 residues) expressed in Escherichia coli assessed as dissociation constant
[12] = molecular target: von Hippel-Lindau disease tumor suppressor/Histone-lysine N-methyltransferase NSD3 (Homo sapiens, UniProt P40337+Q9BZ95); assay: PROTAC activity at VHL/NSD3 […] domain in human MOLM-13 cells assessed as […] measured after 48 hrs by immunoblotting analysis; format: cell-based
von Hippel-Lindau disease tumor suppressor/Histone-lysine N-methyltransferase NSD3, sequence (P40337 whole entry, one chain of several): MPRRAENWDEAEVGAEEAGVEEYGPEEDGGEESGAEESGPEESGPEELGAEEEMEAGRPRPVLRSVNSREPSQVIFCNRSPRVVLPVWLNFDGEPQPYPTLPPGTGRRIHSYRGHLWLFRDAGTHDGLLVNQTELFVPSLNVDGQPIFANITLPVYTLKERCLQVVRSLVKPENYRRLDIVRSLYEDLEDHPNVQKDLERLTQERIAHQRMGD

[13] = system: RS4-11; assay: Antiproliferative activity against human RS4-11 cells assessed as cell growth inhibition measured after 8 days; format: functional, cell-based; details: RS4-11, 192 h
[14] = system: EOL1; assay: Antiproliferative activity against human EOL1 cells assessed as cell growth inhibition measured after 8 days; format: functional, cell-based; details: EOL1, 192 h
[15] = molecular target: T1, Histone-lysine N-methyltransferase NSD3; assay: Inhibition of NSD3 PWWP1 domain (unknown origin) by TR-FRET assay
[16] = molecular target: T1, Histone-lysine N-methyltransferase NSD3; assay: Inhibition of NSD3 PWWP1 domain (unknown origin) assessed as […] by SPR analysis
[17] = molecular target: T1, Histone-lysine N-methyltransferase NSD3; assay: Inhibition of N-terminal His-TEV-tagged human NSD3 (1054 to 1285 residues ) expressed in Escherichia coli using 3[H] SAM as substrate measured after 30 mins by biochemical assay
[18] = molecular target: T3, Histone-lysine N-methyltransferase NSD2; assay: Inhibition of N-terminal GST-tagged human NSD2 (941 to 1240 residues ) expressed in Escherichia coli using 3[H] SAM as substrate measured after 30 mins by biochemical assay

IC50 [2]: 0.139 µM | IC50 [3]: 1.2 µM | IC50 [4]: 26.8 µM
SMILES: Cc1cc(CN)cc(C)c1-c1ncn(C)c1-c1ccnc2cc(F)ccc12
IC50 [1]: 13 µM

IC50 [5]: 0.26 µM | IC50 [6]: 0.11 µM
SMILES: O=C1C(Cl)=C(NCCN2CCOCC2)C(=O)c2ncccc21

IC50 [7]: 46 µM
SMILES: Nc1ncnc2c1ncn2[C@@H]1O[C@H](C[C@@H](N)CC[C@H](N)C(=O)O)[C@@H](O)[C@H]1O [SINEFUNGIN]

IC50 [8]: 12 µM | IC50 [9]: 21 µM
SMILES: Cc1ccc(C(=O)Nc2ccc(S(=O)(=O)O)c3cc(S(=O)(=O)O)cc(S(=O)(=O)O)c23)cc1NC(=O)c1cccc(NC(=O)Nc2cccc(C(=O)Nc3cc(C(=O)Nc4ccc(S(=O)(=O)O)c5cc(S(=O)(=O)O)cc(S(=O)(=O)O)c45)ccc3C)c2)c1 [SURAMIN]

EC50 [10]: 3.3 µM | Kd [11]: 1.3 µM | EC50 [12]: 4.9 µM | EC50 [13]: 3.5 µM
SMILES: Cc1cc(CNCCCC(=O)NCCCCCCCCC(=O)N[C@H](C(=O)N2C[C@@H](O)C[C@@H]2C(=O)N[C@H](C)c2ccc(-c3scnc3C)cc2)C(C)(C)C)cc(C)c1-c1ncn(C)c1-c1ccnc2cc(F)ccc12
EC50 [14]: 2.3 µM

SMILES: CN1C(=O)[C@@]23C[C@]4([C@]56C[C@@]78SS[C@@](CO)(C(=O)N7[C@H]5Nc5ccccc56)N(C)C8=O)c5ccccc5N[C@@H]4N2C(=O)[C@]1(CO)SS3 [CHAETOCIN]
IC50 [5]: 3.2 µM | IC50 [7]: 16 µM | IC50 [8]: 11 µM | IC50 [9]: 6 µM

IC50 [15]: 1.9 µM | Kd [16]: 6.8 µM
SMILES: Cc1noc(C)c1-c1ncn(C)c1-c1ccnc2cc(F)ccc12

IC50 [17]: 3.2 µM | IC50 [18]: 22 µM
SMILES: CCC[C@H](C)[C@H](NC(=O)[C@@H](NC(=O)CNC(C)=O)C(C)C)C(=O)N[C@@H](CCCNC(=N)N)C(=O)N[C@H](C(N)=O)[C@@H](C)CC (Ac-GV[X1]RI-NH2)

IC50 [15]: 5.2 µM | Kd [16]: 9.7 µM
SMILES: Cc1cc(CN)cc(C)c1-c1ncn(C)c1-c1ccncc1
